The subject of assay [1] is inositol mono-phosphate (IMP) dehydrogenase (IMPDH). The settings on record: cited from earlier work.
Assay [2] deals with NS3-specific CD4+ T cell proliferation. In words: in vitro recall assay, CD4+ T cell proliferation of lymph node cells, [3H] thymidine. The assay is classed as in vivo, mice. The settings on record: 100 μg rNS3 mixed with 1 mg ribavirin s.c.; ten days; 96 h culture (FIG. 9). The protocol:
This assay can be used with any ribavirin derivative or combinations of ribavirin derivatives to determine the extent that a particular vaccine formulation modulates a cellular immune response. […] The mice were sacrificed ten days post-immunization and their lymph nodes were harvested and drained. In vitro recall assays were then performed. (See e.g., Hultgren et al., J Gen Virol. 79:2381-91 (1998) and Hultgren et al., Clin. Diagn. Lab. Immunol. 4:630-632 (1997)). The amount of CD4^+ T cell proliferation was determined at 96 h of culture by the incorporation of [^3H] thymidine.

In the next assay the test system is rNS3. In words: ribavirin dose finding, rNS3-specific IgG by EIA (FIG. 8, TABLE 17). The assay is classed as in vivo, mice. The protocol: The levels of antibody to the antigen were then determined by EIA.
A second set of experiments was also performed. […] The mice were bled at week six and rNS3-specific IgG levels were determined by EIA as described previously.

The next assay concerns NS3. Kind of assay: NS3-specific IgG subclasses by EIA after primary and booster injection (TABLE 18). The assay is classed as in vivo, mice. The settings on record: 10 μg rNS3 with 0.1 or 1.0 mg ribavirin at weeks 0 and 4; bled week six. The protocol: The mice were bled at week six and NS3-specific IgG subclasses were determined by EIA as described previously.
Another assay relates to HBsAg. Kind of assay: EIA end point antibody titer to HBsAg, Engerix vaccine with or without ribavirin (TABLE 19). The assay is classed as in vivo, mice. The settings on record: 1 mg ribavirin with 2 μg vaccine i.p.; booster week four, bled week six. The source says: (Engerix, SKB). […] A booster containing the same mixture was given on week four and all mice were bled on week six.

Consider `NC(=O)c1ncn([C@@H]2O[C@H](CO)[C@@H](O)[C@H]2O)n1` [ribavirin, 1-β-D-ribofuranosyl-1,2,4-triazole-3-carboxamide], for which the “mode of action on IMPDH” value in assay [1] was “competitive inhibitor”. In addition, in assay [2], the “T cell proliferative response versus 100 μg rNS3 in PBS” value is given as “much greater T cell proliferative response”. Further, the “effect on antibody levels” value was “enhance antibody levels at week three” in the assay on rNS3 (higher doses (1-10 mg) ribavirin with 20 μg rNS3, week three (FIG. 8)); “enhance antibody levels at week one” in the assay on rNS3 (low doses (<1 mg) ribavirin with 20 μg rNS3, week one (FIG. 8)); “not at week three” in the assay with rNS3 (low doses (<1 mg) ribavirin with 20 μg rNS3, week three (FIG. 8)). Further, the “effect on IgG subclass response” value in the assay on NS3 is “does not change the IgG subclass response”. Further, in the assay with HBsAg, the “effect on antibody response to Engerix vaccine” value is “enhanced the response”.
